Test results: ChEMBL document CHEMBL1155049, “Synthesis and cytotoxic activity of benzopyran-based platinum(II) complexes” (Bioorg Med Chem Lett, 2008)

Legend:
Type in all cases: functional, cell-based
MDA-MB-468 = assay: Cytotoxicity against estrogen receptor deficient human MDA-MB-468 cells after 72 hrs by MTT assay; conditions: MDA-MB-468, 72 h
MCF7 = assay: Cytotoxicity against human MCF7 cells expressing estrogen receptor after 72 hrs by MTT assay; conditions: MCF7, 72 h
[1] = Cytotoxicity against estrogen receptor deficient human MDA-MB-436 cells after 72 hrs by MTT assay; conditions: MDA-MB-436, 72 h
MDA-MB-231 = assay: Cytotoxicity against estrogen receptor deficient human MDA-MB-231 cells after 72 hrs by MTT assay; conditions: MDA-MB-231, 72 h

COc1ccc2c(c1)OC(C)(C)[C@@H](c1ccccc1)[C@@H]2c1ccc(OCCCCCCNCCCc2ccccn2)cc1 showed an IC50 (MDA-MB-468) of 7.61 µM, an IC50 (MCF7) of 15.6 µM and an IC50 [1] of 15.7 µM. It also gave an IC50 (MDA-MB-231) of 18.7 µM.
